Experimental data published in patent US10968462B2, “Plants having increased tolerance to herbicides” (BASF AGRO B.V., priority 2013, dated 2021).

Test system: transgenic T2 soybean plants
Assay: Soybean greenhouse spray test, T2 plants at V2-V3 stage, injury 0-9 point scale 1 or 2 weeks after treatment (Tables 7C-7E)
Format: in vivo, Glycine max
Details: 2 week after treatment
Experimental: Soybean cv Jake was transformed as previously described by Siminszky et al., Phytochem Rev. 5:445-458 (2006). After regeneration, transformants were transplanted to soil in small pots, placed in growth chambers (16 hr day/8 hr night; 25° C. day/23° C. night; 65% relative humidity; 130-150 microE m-2 s-1) and subsequently tested for the presence of the T-DNA via Taqman analysis. After a few weeks, healthy, transgenic positive, single copy events were transplanted to larger pots and allowed to grow in the growth chamber. An optimal shoot for cutting was about 3-4 inches tall, with at least two nodes present. Each cutting was taken from the original transformant (mother plant) and dipped into rooting hormone powder (indole-3-butyric acid, IBA). The cutting was then placed in oasis wedges inside a bio-dome. The mother plant was taken to maturity in the greenhouse and harvested for seed. Wild type cuttings were also taken simultaneously to serve as negative controls. The cuttings were kept in the bio-dome for 5-7 days and then transplanted to 3 inch pots and then acclimated in the growth chamber for two more days. […] Other herbicides, such as AHAS (ALS—Acetolactate Synthase) inhibiting herbicides were also tested in a similar fashion for confirming cross resistance to other modes of action: Tritosulfuron, Florasulam, Metsulfuron, Rimsulfuron. Herbicide injury evaluations were taken at 2, 7, 14 and 21 days after treatment.
• 0 No Injury • 1 Minimal injury, only a few patches of leaf injury or chlorosis. • 2 Minimal injury with slightly stronger chlorosis. Overall growth points remain undamaged. • 3 Slightly stronger injury on secondary leaf tissue, but primary leaf and growth points are still undamaged. • 4 Overall plant morphology is slightly different, some chlorosis and necrosis in secondary growth points and leaf tissue. Stems are intact. Regrowth is highly probable within 1 week. • 5 Overall plant morphology is clearly different, some chlorosis and necrosis on a few leaves and growth points, but primary growth point is intact. Stem tissue is still green. Regrowth is highly probably within 1 week. • 6 Strong injury can be seen on the new leaflet growth. Plant has a high probability to survive only through regrowth at different growth points. Most of the leaves are chlorotic/necrotic but stem tissue is still green. May have regrowth but with noticeable injured appearance. • 7 Most of the active growth points are necrotic. There may be a single growth point that could survive and may be partially chlorotic or green and partially necrotic. Two leaves may still be chlorotic with some green; the rest of the plant including stem is necrotic. • 8 Plant will likely die, and all growth points are necrotic. One leaf may still be chlorotic with some green. The remainder of the plant is necrotic. • 9 Plant is dead. • * Not tested

With `COc1ncc(F)c2nc(S(=O)(=O)Nc3c(F)cccc3F)nn12` [Flurasulam] the “injury on a 0-9 point scale” value (Bradi_1g07930.1 (Event 1), 0.156 g ai/ha) was 0.3, the “injury on a 0-9 point scale” value (Bradi_1g07930.1 (Event 1), 0.3125 g ai/ha) was 0.5 and the “injury on a 0-9 point scale” value (Bradi_1g07930.1 (Event 1), 0.625 g ai/ha) was 2.5. For the same compound, the “injury on a 0-9 point scale” value (Bradi_1g07930.1 (Event 1), Flurasulam 1.25 g ai/ha) was 3.0, the “injury on a 0-9 point scale” value (Bradi_1g07930.1 (Event 1), Flurasulam 2.5 g ai/ha) was 1.7 and the “injury on a 0-9 point scale” value (Bradi_1g07930.1 (Event 1), Flurasulam 5 g ai/ha) was 3.3. The “injury on a 0-9 point scale” value (R128A_F420V (Event 1), 0.156 g ai/ha) was 0.0, the “injury on a 0-9 point scale” value (R128A_F420V (Event 1), 0.3125 g ai/ha) was 3.3 and the “injury on a 0-9 point scale” value (R128A_F420V (Event 1), 0.625 g ai/ha) was 3.5. For the same compound, the “injury on a 0-9 point scale” value (R128A_F420V (Event 1), Flurasulam 1.25 g ai/ha) was 4.5, the “injury on a 0-9 point scale” value (R128A_F420V (Event 1), Flurasulam 2.5 g ai/ha) was 6.8 and the “injury on a 0-9 point scale” value (R128A_F420V (Event 1), Flurasulam 5 g ai/ha) was 6.5. The “injury on a 0-9 point scale” value (R128A_F420V (Event 2), 0.156 g ai/ha) was 1.0, the “injury on a 0-9 point scale” value (R128A_F420V (Event 2), 0.3125 g ai/ha) was 1.0 and the “injury on a 0-9 point scale” value (R128A_F420V (Event 2), 0.625 g ai/ha) was 3.5. The “injury on a 0-9 point scale” value (R128A_F420V (Event 2), Flurasulam 1.25 g ai/ha) was 5.0, the “injury on a 0-9 point scale” value (R128A_F420V (Event 2), Flurasulam 2.5 g ai/ha) was 6.0 and the “injury on a 0-9 point scale” value (R128A_F420V (Event 2), Flurasulam 5 g ai/ha) was 6.0. The “injury on a 0-9 point scale” value (R128A_F420V + Bradi_1g07930.1 (Event 1), 0.156 g ai/ha) was 1.5, the “injury on a 0-9 point scale” value (R128A_F420V + Bradi_1g07930.1 (Event 1), 0.3125 g ai/ha) was 2.3 and the “injury on a 0-9 point scale” value (R128A_F420V + Bradi_1g07930.1 (Event 1), 0.625 g ai/ha) was 3.0. For the same compound, the “injury on a 0-9 point scale” value (R128A_F420V + Bradi_1g07930.1 (Event 1), Flurasulam 1.25 g ai/ha) was 3.5, the “injury on a 0-9 point scale” value (R128A_F420V + Bradi_1g07930.1 (Event 1), Flurasulam 2.5 g ai/ha) was 3.3 and the “injury on a 0-9 point scale” value (R128A_F420V + Bradi_1g07930.1 (Event 1), Flurasulam 5 g ai/ha) was 2.5. For the same compound, the “injury on a 0-9 point scale” value (R128A_F420V + Bradi_1g07930.1 (Event 2), 0.156 g ai/ha) was 3.3, the “injury on a 0-9 point scale” value (R128A_F420V + Bradi_1g07930.1 (Event 2), 0.3125 g ai/ha) was 3.0 and the “injury on a 0-9 point scale” value (R128A_F420V + Bradi_1g07930.1 (Event 2), 0.625 g ai/ha) was 3.0. The “injury on a 0-9 point scale” value (R128A_F420V + Bradi_1g07930.1 (Event 2), Flurasulam 1.25 g ai/ha) was 3.5, the “injury on a 0-9 point scale” value (R128A_F420V + Bradi_1g07930.1 (Event 2), Flurasulam 2.5 g ai/ha) was 3.0 and the “injury on a 0-9 point scale” value (R128A_F420V + Bradi_1g07930.1 (Event 2), Flurasulam 5 g ai/ha) was 3.5. For the same compound, the “injury on a 0-9 point scale” value (wild type, 0.156 g ai/ha) was 0.3, the “injury on a 0-9 point scale” value (wild type, 0.3125 g ai/ha) was 3.0 and the “injury on a 0-9 point scale” value (wild type, 0.625 g ai/ha) was 4.0. The “injury on a 0-9 point scale” value (wild type, Flurasulam 1.25 g ai/ha) was 5.5, the “injury on a 0-9 point scale” value (wild type, Flurasulam 2.5 g ai/ha) was 6.0 and the “injury on a 0-9 point scale” value (wild type, Flurasulam 5 g ai/ha) was 7.5.
In the case of `COc1nc(C)nc(=NC(=O)NS(=O)(=O)c2ccccc2C(=O)O)[nH]1` [Metsulfuron], the “injury on a 0-9 point scale” value (Bradi_1g07930.1 (Event 1), 1.05 g ai/ha) is reported as 1.0, the “injury on a 0-9 point scale” value (Bradi_1g07930.1 (Event 1), 2.1 g ai/ha) is reported as 0.7 and the “injury on a 0-9 point scale” value (Bradi_1g07930.1 (Event 1), 4.2 g ai/ha) is reported as 2.3. The “injury on a 0-9 point scale” value (Bradi_1g07930.1 (Event 1), 8.4 g ai/ha) was 3.3, the “injury on a 0-9 point scale” value (R128A_F420V (Event 1), 1.05 g ai/ha) was 8.0 and the “injury on a 0-9 point scale” value (R128A_F420V (Event 1), 2.1 g ai/ha) was 8.0. The “injury on a 0-9 point scale” value (R128A_F420V (Event 1), 4.2 g ai/ha) was 8.0, the “injury on a 0-9 point scale” value (R128A_F420V (Event 1), 8.4 g ai/ha) was 8.7 and the “injury on a 0-9 point scale” value (R128A_F420V (Event 2), 1.05 g ai/ha) was 8.0. For the same compound, the “injury on a 0-9 point scale” value (R128A_F420V (Event 2), 2.1 g ai/ha) was 9.0, the “injury on a 0-9 point scale” value (R128A_F420V (Event 2), 4.2 g ai/ha) was 8.7 and the “injury on a 0-9 point scale” value (R128A_F420V (Event 2), 8.4 g ai/ha) was 9.0. For the same compound, the “injury on a 0-9 point scale” value (R128A_F420V + Bradi_1g07930.1 (Event 1), 1.05 g ai/ha) was 2.7, the “injury on a 0-9 point scale” value (R128A_F420V + Bradi_1g07930.1 (Event 1), 2.1 g ai/ha) was 3.0 and the “injury on a 0-9 point scale” value (R128A_F420V + Bradi_1g07930.1 (Event 1), 4.2 g ai/ha) was 4.0. The “injury on a 0-9 point scale” value (R128A_F420V + Bradi_1g07930.1 (Event 1), 8.4 g ai/ha) was 4.3, the “injury on a 0-9 point scale” value (R128A_F420V + Bradi_1g07930.1 (Event 2), 1.05 g ai/ha) was 3.0 and the “injury on a 0-9 point scale” value (R128A_F420V + Bradi_1g07930.1 (Event 2), 2.1 g ai/ha) was 3.7. The “injury on a 0-9 point scale” value (R128A_F420V + Bradi_1g07930.1 (Event 2), 4.2 g ai/ha) was 3.0, the “injury on a 0-9 point scale” value (R128A_F420V + Bradi_1g07930.1 (Event 2), 8.4 g ai/ha) was 3.0 and the “injury on a 0-9 point scale” value (wild type, 1.05 g ai/ha) was 8.5. For the same compound, the “injury on a 0-9 point scale” value (wild type, 2.1 g ai/ha) was 8.3, the “injury on a 0-9 point scale” value (wild type, 4.2 g ai/ha) was 8.8 and the “injury on a 0-9 point scale” value (wild type, 8.4 g ai/ha) was 8.5.
